# Test results: article PMC11931445, “A Novel Compound QO‐83 Alleviates Acute and Chronic Epileptic Seizures in Rodents by Modulating KV7 Channel Activity” (CNS Neuroscience & Therapeutics, 2025)
# What was measured:
# KV7.2/7.3 = target: T1, KV7.2/7.3 (Homo sapiens, UniProt O43525+O43526); assay: Rb+ efflux high-throughput screening (ICR 8000); assay type: cell-based
# T1 construct: expressed in transfected cells
# Text: (§1) The activation effect of QO-83 on the KV7 channel was preliminarily verified using high-throughput screening methodologies.
# (§2) [picture] Figure S3: The activation effect of QO-83 on the KV7 channels was preliminarily verified by high-throughput screening. (A)High-throughput screening for KV7.2/7.3 stable expressed in CHO cells (n = 6). (B)High-throughput screening for KV7.4 stable expressed in HEK293 cells (n = 6). (C) High-throughput screening for KCNQ1/E1 transient expression in HEK293 cells (n = 6).
# (§3) The high-throughput screening experiment utilizing the ICR 8000 rubidium ion elution method aimed to assess the sensitivity of QO-83 towards KV7.2/3 and KV7.1 channels. Cells in the logarithmic growth phase were seeded into 96-well plates at a density of 2×10^5 cells per well. Following overnight incubation, the medium was replaced with 200 μL of RBCL-loaded buffer and incubated under controlled conditions (5% CO2, 37°C) for 3 hours. The loading buffer composition consisted of 5.4 mM RbCl, 5 mM Glucose, 25 mM HEPES, 150 mM NaCl, 1 mM MgCl2, 0.8 mM NaH2PO4•2H2O, and 2 mM CaCl2.
# (§4) Subsequently, the solution was aspirated, and the cells were washed thrice with Washing Buffer (5.4 mM KCl, 25 mM HEPES, 150 mM NaCl, 1 mM MgCl2, 0.8 mM NaH2PO4•2H2O, 2 mM CaCl2). […] Each concentration was distributed across triplicate wells, with corresponding concentration solvent control wells included. […]
# KV7.4 = target: T2, KV7.4 (Homo sapiens, UniProt P56696); assay: Rb+ efflux high-throughput screening (ICR 8000); assay type: cell-based
# T2 construct: expressed in transfected cells
# Text: as §1, §2, §3, §4
# KV7.3 = KV7.3 (Homo sapiens, UniProt O43525); assay: Manual patch clamp, KV7 currents; assay type: cell-based
# Procedure: Pipettes (1–6 MΩ) were filled with a solution of KCl (145 mM), MgCl2 (1 mM), HEPES (10 mM), and EDTA (5 mM). The pH was adjusted to 7.2 with NaOH. Electrophysiological measurements were obtained using an AXON Multiclamp 700 B patch‐clamp amplifier. The bath solution contained NaCl (144 mM), KCl (5 mM), MgCl2 (1 mM), CaCl2 (2 mM), and D‐glucose (10 mM), with the pH adjusted to 7.4 using NaOH. The protocol involved an increase in voltage from −120 mV to 40 mV in increments of 10 mV to evoke a series of KV7 currents (1000 ms per pulse) in the bath solution. For details on cell culture, please see Appendix S1 2.2.1.
# Statistical differences between multiple groups (mean ± SEM) were compared using one‐ or two‐way ANOVA. Electrophysiological data were analyzed using SPSS version 21 and OriginPro (version 9.1.0). P Peak inward currents obtained from activation protocols were calculated using the following equation: G = I/(Vm‐EK), where G is conductance, I is peak inward current, Vm is instantaneous membrane potential, and EK is equilibrium potential for the […] channel. Conductance data were normalized using maximum conductance and further fitted to the Boltzmann equation: G=Gmax+Gmin−Gmax/1+expVm−V1/2/k , where G is conductance, V1/2 is midpoint of activation, and k is slope factor. The “Spectrum” module of LabChart was used for data analysis of EEG signals, including the calculation of power density and averaging power spectral density (PSD).
# KV7.1/KCNE1 channel = target: T3, KV7.1/KCNE1 channel (Homo sapiens, UniProt P51787); assay: Rb+ efflux high-throughput screening (ICR 8000); assay type: cell-based; details: up to 100 μM, transient expression in HEK293 cells
# T3 construct: expressed in transfected cells; host or cells: HEK293, transient expression
# Procedure: Furthermore, the KV7.1 channel, which co-expresses with the auxiliary subunit KCNE1 to form slowly activated delayed rectifier potassium currents (IKs) during cardiac repolarization, was evaluated using the Rb^+ efflux high-throughput screening technique to determine the opening activity of QO-83 on the KCNQ1/E1 channel.
# as §2
# as §3, with “CaCl2. […]” for “CaCl2.”
# PTZ kindling seizures = assay: Chronic PTZ-induced epileptic kindling model; assay type: in vivo, Wistar Institute rats
# Procedure: In the preparation of the chronic PTZ‐induced epileptic kindling model, male Wistar Institute rats weighing between 180 and 250 g were utilized. […] During the modeling period, all groups received daily intraperitoneal injections of 0.2 mL/100 g between 9:00 and 15:00.
# Seizure severity was assessed using the Racine scale.
# PNC-induced seizures = assay: Penicillin (PNC) induced acute epilepsy model; assay type: in vivo, SD rats; details: 40 mg/kg i.g.
# Procedure: In the penicillin (PNC) induced acute epilepsy model study, male SD rats weighing between 180 g and 250 g were utilized. […] Each group consisted of 10 rats.
# PNC was administered intraperitoneally at a dose of 8 million U/kg to induce epileptic seizures. […] In the Compound QO‐83 treatment groups, rats were orally administered the designated doses of Compound QO‐83, followed by an intraperitoneal injection of PNC after a 20‐min interval. The PNC model group received an oral gavage of a 0.5% CMC‐Na solution, followed by an intraperitoneal injection of PNC after a 20‐min interval. […] Seizure behaviors, including convulsions, limb jerks, and loss of postural control, were observed and analyzed in all groups.
smiles,measurement,setting,value
"CCOC(=O)Nc1ccc(NCc2ccc(F)cc2)cc1N [RTG, retigabine]",EC50,KV7.2/7.3,180 ± 70 nM
same,EC50,KV7.4,1380 ± 310 nM
same,activation curve V1/2,KV7.3; 10.00 μM,-55.64 ± 1.31 mV
same,Activation τ (10 mV),"KV7.3; 10 μM, Mean ± SE",246.33 ± 21.28 ms
same,Deactivation τ (-120 mV),"KV7.3; 10 μM, Mean ± SE",153.33 ± 48.97 ms
same,opening activity on KV7.1/KCNE1 channel,KV7.1/KCNE1 channel,did not affect
same,effect on latency period,PTZ kindling seizures; 10 mg/kg,significantly prolong the latency period
same,seizure grade,"PTZ kindling seizures; 10 mg/kg i.p. daily, 30th day, model 4.68 ± 0.62",1.75 ± 0.31
same,effect on seizure latency,PNC-induced seizures,significantly increased seizure latency
same,seizure grade,PNC-induced seizures,2.66 ± 0.33
